In patent US10047105B2, “Gyrase inhibitors” (Merck Sharp & Dohme Corp., priority 2009, dated 2018):
Converted amounts (≈) assume the structure as drawn.

Legend:
Type in all cases: cell-based
S. aureus ATCC 13709 = experiment: MIC, antibacterial potency, S. aureus; settings: S. aureus (SA); in µg/mL
S. pneumoniae ATCC 51916 = experiment: MIC, S. pneumoniae; settings: S. pneumoniae (Spn52); in µg/mL
E. coli 8 ATCC 25922 = experiment: MIC, E. coli 8 (wt); settings: E. coli 8 (EC8)

Compound | MIC, SA (S. aureus ATCC 13709) | MIC Spn52 (S. pneumoniae ATCC 51916) | MIC EC8 (E. coli 8 ATCC 25922)
CCc1[nH]c2nc(Oc3ccc4nccnc4c3)nc(Oc3cncnc3)c2c1Br [700,965] | <=0.5 | <=0.5 | 64 µg/mL (≈ 138 µM)
CCc1[nH]c2nc(Sc3cnc4cccnc4c3)nc(N3C[C@H](N)[C@H](C(=O)N[C@@H](CO)c4ccccc4)C3)c2c1Cl [701,021] | 4 | 4 | > 64 µg/mL
CCc1[nH]c2nc(Oc3cncnc3)nc(Oc3ccc4c(N5CCOCC5)ncnc4c3)c2c1Br [701,104] | <=0.5 | <=0.5 | > 32 µg/mL
CCc1[nH]c2nc(Sc3ccc4c(N5CC(N)C5)ncnc4c3)nc(N3C[C@@H]4[C@H](C3)[C@@]4(N)C(N)=O)c2c1Cl [700,960] | 2 | 2 | > 32 µg/mL
CCc1[nH]c2nc(Oc3cccc(C#N)c3)nc(C(C)N)c2c1Cl (stereo not drawn) [700,946] | >64 | >64 | > 64 µg/mL
CCc1[nH]c2nc(Oc3cccc(S(C)(=O)=O)c3)nc(Oc3ccc4nccnc4c3)c2c1Br [701,095] | <=0.5 | <=0.5 | > 64 µg/mL
CCc1[nH]c2nc(Oc3cnc(N)nc3)nc(Oc3cnc(N)nc3)c2c1Br [701,106] | 2 | 4 | > 64 µg/mL
CCc1[nH]c2nc(Sc3cnc4nccnc4c3)nc(N3CCC4CN[C@H]4C3)c2c1Cl (stereo partly drawn) [701,102] | <=0.5 | 1. | 16 µg/mL (≈ 35.3 µM)
CCc1[nH]c2nc(Sc3ccc(/C=C/C(=O)O)c(F)c3)nc(N3CC[C@@H](N)C3)c2c1Cl [701,002] | 4 | >64 | > 64 µg/mL
CCc1[nH]c2nc(Sc3ccc4c(-n5ccnc5)cc(C)nc4c3)nc(N3CC[C@@H](N)C3)c2c1Cl [700,913] | 2 | 2 | > 64 µg/mL
NC1CN(c2nc(Sc3cnc4cccnc4c3)nc3[nH]c(C4CC4)c(Cl)c23)C1 [701,065] | 8 | 4 | 16 µg/mL (≈ 37.7 µM)

The remaining lines, values ahead:

MIC, SA (S. aureus ATCC 13709) | MIC Spn52 (S. pneumoniae ATCC 51916) | MIC EC8 (E. coli 8 ATCC 25922) | Compound
>32 | >32 | > 32 µg/mL | CCc1[nH]c2nc(Sc3cnc4cccnc4c3)nc(N3C[C@H](N)[C@H](C(=O)NCC(O)CO)C3)c2c1Cl (stereo partly drawn) [701,019]
2 | 4 | > 64 µg/mL | CCc1[nH]c2nc(Oc3ccc4nccnc4c3)nc(N3CCOCC3)c2c1Cl [701,029]
2 | >64 | > 64 µg/mL | CCc1[nH]c2nc(Sc3cnc(N)nc3)nc(N3CC4C(C3)C4(N)C(N)=O)c2c1Cl (stereo not drawn) [700,968]
<=0.5 | 2 | > 32 µg/mL | CCc1[nH]c2nc(Oc3ccc4nccnc4c3)nc(N3CC4C(C3)C4(N)C(N)=O)c2c1Br (stereo not drawn) [700,980]
<=0.5 | 2 | 32 µg/mL (≈ 72.6 µM) | CCc1[nH]c2nc(Sc3ccc4c(c3)C(=O)NC4)nc(N3CC4C(N)C4C3)c2c1Cl (stereo not drawn) [700,974]
<=0.5 | 1 | > 32 µg/mL | CCc1[nH]c2nc(Sc3cnc4nccnc4c3)nc(N3CC4CC(O)C4C3)c2c1Cl (stereo not drawn) [700,957]
<=0.5 | <=0.5 | > 64 µg/mL | CCc1[nH]c2nc(Sc3ccc4cccnc4c3)nc(N3CC4C(N)C4C3)c2c1Cl (stereo not drawn) [700,992]
2 | 1 | > 64 µg/mL | CCc1[nH]c2nc(Sc3cnc4cccnc4c3)nc(N3C[C@H](N)[C@H](C(=O)NCC(C)C)C3)c2c1Cl [701,017]
1 | 4 | > 64 µg/mL | CCc1[nH]c2nc(Oc3ccc4nccnc4c3)nc(N3CC(N)C3)c2c1Cl [700,963]
8 | 8 | > 64 µg/mL | CCc1[nH]c2nc(Oc3cnc(C(N)=O)nc3)nc(N3CC4C(N)C4C3)c2c1Cl (stereo not drawn) [701,133]
